Positions of bridges follow the written chain, without caps; N, C: chain ends. Residues, ends and D or L forms follow the SMILES beside them.
Legend:
rat ASIC1a channel = target: T1, rat ASIC1a channel (Rattus norvegicus, UniProt P55926); assay: Two-electrode voltage clamp, rat ASIC1a in X. laevis oocytes; format: cell-based
T1 construct: expressed in transfected cells; host or cells: Xenopus laevis oocytes injected with mRNA made from a pCI-rASIC1a plasmid
T1 sequence (P55926 1-526): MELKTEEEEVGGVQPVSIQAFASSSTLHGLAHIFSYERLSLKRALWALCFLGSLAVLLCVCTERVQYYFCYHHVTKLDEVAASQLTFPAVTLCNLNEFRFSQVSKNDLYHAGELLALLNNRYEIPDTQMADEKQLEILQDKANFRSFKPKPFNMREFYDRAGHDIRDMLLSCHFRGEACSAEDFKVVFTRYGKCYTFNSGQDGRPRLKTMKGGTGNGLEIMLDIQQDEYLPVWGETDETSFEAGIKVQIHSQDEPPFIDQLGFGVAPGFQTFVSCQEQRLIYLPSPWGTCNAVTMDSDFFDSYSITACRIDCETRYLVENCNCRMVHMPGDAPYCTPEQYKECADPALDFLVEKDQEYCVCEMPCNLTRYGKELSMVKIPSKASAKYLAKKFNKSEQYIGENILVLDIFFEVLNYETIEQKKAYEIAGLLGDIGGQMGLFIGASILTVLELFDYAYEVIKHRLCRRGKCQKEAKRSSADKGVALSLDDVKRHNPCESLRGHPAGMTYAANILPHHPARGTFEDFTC
Protocol: Figure 3 The effect of mutant peptides S16K and A23K on rat ASIC1a and ASIC3 channels. […] (B) Dose–response curves for the inhibitory effect of mutant peptides on ASIC1a. Each data point represents data from 5 cells. (C) Representative current traces of Ugr9-1, S16K, and A23K at a concentration of 12.5 µM on ASIC3. […] Each point represents data from 5 cells. The depicted currents were induced by a pH 5.5 stimulus following a conditioning pH of 7.4, with peptides applied for 30 s before the pH stimulus. The holding potential (Vh) was −50 mV, and the time interval between applications ranged from 1 to 2 min. Data are presented as mean ± S.E.M.
A small portion of the ovary was isolated from frogs under anesthesia induced by a 0.17% solution of procaine methanesulphonate (MS222) (Sigma), followed by treatment with collagenase (1 mg/mL) at room temperature for 2 h. Oocytes at stages IV and V, devoid of follicular membranes, were transferred to ND-96 medium (containing 96 mM NaCl, 5 mM HEPES, 2 mM KCl, 1.8 mM CaCl2, 1 mM MgCl2, pH 7.4). mRNA synthesis was performed from pcDNA3.1 vectors (Invitrogen, Carlsbad, CA, USA) containing the rat ASIC3 gene, as well as pCI vectors containing genes for rat ASIC1a, its mutant analogues, and ASIC1b. mRNA (2.5–10 ng) was then injected into the oocytes. For the ASIC1a/3 heteromeric channels, the mRNA encoding the ASIC1a and ASIC3 subunits were injected in a 1:5 ratio, respectively. Subsequently, the oocytes were incubated for 2–3 days at a temperature of 17–19 °C in ND96 medium supplemented with gentamicin and streptomycin (20 µg/mL each).
Whole-cell electrophysiological recordings of ASIC channels were conducted using a two-electrode voltage-clamp setup. Microelectrodes were filled with 3 M KCl. Recordings from oocytes were carried out at a holding potential of −50 mV, with data filtered at 10 Hz and sampled at a rate of 100 Hz using an L780M ADC (LCard, Moscow, Russia). The synchronized delivery of solutions into the chamber and recording of electrophysiological results were carried out using in-house software v.2. Activation of ASIC channels occurred through rapid pH changes in the solution, achieved by replacing the working solution in the chamber with ND96-based solutions at varying pH levels. Specifically, HEPES was substituted with 10 mM MES for pH 5.5–6.5 and MOPS for pH 6.7–7.0.
Fresh peptide solutions were meticulously prepared in ND96 buffer with a pH of 7.43 immediately before experiments, with strict control over the pH levels. Peptides were applied for 30 s at a conditioning pH of 7.43 before acid stimulation of the channel. The interval between applications was maintained at a minimum of 1.5 to 2 min.
Electrophysiological data analysis was conducted using OriginPro 2018 software (OriginLab, Northampton, MA, USA). Dose–response relationships for Ugr9a-1, S16K, and A23K peptides were fitted using a Hill function: F1(x) = A − A/(1 + (x/IC50)^nH), where F1(x) represents the amplitude of the current at concentration x of the peptide, A is the maximum amplitude of the current, IC50 is the half-maximum inhibitory concentration of the peptide, and nH is the Hill coefficient.

[1] = Acetic acid-induced writhing (AAW pain model); format: in vivo, ICR mice; conditions: for reduction of number of writhes, significance by dose: 0.002, 0.02, 0.2 mg/kg i.m.
Protocol: In both the AAW and CFA-induced hyperalgesia, Ugr9-1 and A23K peptides were administered intramuscularly one hour before the experiments at doses of 0.002, 0.02, and 0.2 mg/kg. In the AAW test, analgesic efficacy was evaluated by assessing the reduction in the number of involuntary writhing episodes induced by intraperitoneal injection of a 0.6% acetic acid solution.
(§1) Adult male ICR mice (Animal Breeding Facility Branch of Shemyakin–Ovchinnikov Institute of Bioorganic Chemistry, Russian Academy of Sciences, Pushchino, Russia), weighing 20–25 g, were utilized. Animals were housed under controlled conditions, with a room temperature of 23 ± 2 °C, a 12 h light–dark cycle, and ad libitum access to food and water. Test substances were dissolved in saline. Peptides (Ugr9-1 and A23K at doses of 0.002, 0.02, and 0.2 mg/kg) and saline (for the control group) were administered intramuscularly 60 min prior to testing.
(§2) The abdominal constriction test of visceral pain (acetic acid-induced writhing pain model) and hyperalgesia induced by complete Freund’s adjuvant (CFA-induced inflammatory pain model) were performed as previously described.
(§3) Statistical analysis was conducted using analysis of variance (ANOVA) with post hoc Tukey’s test, and data are presented as mean ± standard deviation (S.D.).

[2] = CFA-induced hyperalgesia, von Frey test; format: in vivo, ICR mice; conditions: for increase in paw withdrawal threshold (PWT), significance by dose: 0.002, 0.02, 0.2 mg/kg i.m.
Protocol: (§4) In the CFA-induced hyperalgesia test, where CFA administration induces excess sensitivity to mechanical and thermal stimuli, the analgesic effects of peptides were assessed using von Frey filaments of varying forces (von Frey test) and a hot plate apparatus (hot plate test).
as §1, §2
For the von Frey filaments test, mice were positioned in a plastic chamber with access to the inflamed hind paw surface and an electronic von Frey filament (BIO-EVF, Bioseb, Vitrolles, France) was applied with gradually increasing pressure until withdrawal. Data, expressed as the strength of the applied mechanical stimulus from three applications, were averaged, with intervals between exposures of at least 1 min.
as §3

[3] = CFA-induced hyperalgesia, hot plate test; format: in vivo, ICR mice; conditions: hot plate 53 °C; for prolongation of paw withdrawal time, significance by dose: 0.002, 0.02, 0.2 mg/kg i.m.
Protocol: as §4, §1, §2, §3

[4] = one hour before testing, 0.6% acetic acid i.p., n = 7
[5] = 0.02 mg/kg i.m., one hour before testing, n = 7

SMILES | effect on ASIC1a at 50 µM (rat ASIC1a channel; 50 µM, representative current traces, pH 5.5 stimulus, conditioning pH 7.4) | activity towards rASIC1a (rat ASIC1a channel; pH 5.5 stimulus, conditioning pH 7.4) | inhibition of number of writhes (maximum effect) ([1]; 0.02 mg/kg i.m., one hour before testing, 0.6% acetic acid i.p., n = 7) | reduction of number of writhes, significance by dose [1, 4] | increase in paw withdrawal threshold (maximum effect) [2, 5] | increase in paw withdrawal threshold (PWT), significance by dose ([2]; one hour before testing, n = 7) | increase in paw withdrawal time (maximum effect) [3, 5] | prolongation of paw withdrawal time, significance by dose ([3]; one hour before testing, n = 7) | inhibition at 10 µM (rat ASIC1a channel; 10 µM, pH 5.5 stimulus, conditioning pH 7.4, peptide 30 s, mean ± SEM, n = 5, read-out: inhibitory effect on wild-type ASIC1a) | activity on ASIC1a compared to S16K (rat ASIC1a channel; A23K versus S16K) | Hill slope (nH) (rat ASIC1a channel; inhibition of rat ASIC1a, pH 5.5 stimulus, conditioning pH 7.4, mean ± S.E.M., 5 cells) | IC50 (rat ASIC1a channel; rat ASIC1a, X. laevis oocytes, TEVC, Vh −50 mV, pH 5.5 stimulus, conditioning pH 7.4, peptide 30 s before stimulus, mean ± S.E.M., 5 cells, read-out: half-maximal inhibitory concentration (IC50)) | reduction of writhing, times less effective than Ugr9-1 ([1]; 0.02 mg/kg i.m., versus Ugr9-1) | increase in PWT compared to Ugr9-1 ([2]; 0.02 mg/kg i.m., versus Ugr9-1) | paw withdrawal time effect compared to Ugr9-1 ([3]; versus Ugr9-1)
CC[C@H](C)[C@H](N)C(=O)N[C@@H](CO)C(=O)N[C@H](C(=O)N[C@@H](CC(=O)O)C(=O)N1CCC[C@H]1C(=O)N1CCC[C@H]1C(=O)N[C@H]1CSSC[C@@H]2NC(=O)[C@H](CC(N)=O)NC(=O)CNC(=O)[C@H](CO)NC(=O)CNC(=O)[C@H](CC(=O)O)NC(=O)[C@H](CCCNC(=N)N)NC(=O)[C@H](Cc3c[nH]cn3)NC(=O)[C@H](Cc3ccc(O)cc3)NC(=O)[C@H](CSSC[C@@H](C(=O)NCC(=O)N[C@@H](C)C(=O)N[C@H](C(=O)O)C(C)C)NC(=O)CNC(=O)[C@H](Cc3ccc(O)cc3)NC(=O)[C@H](C)NC(=O)[C@H](CC(=O)O)NC(=O)[C@H](Cc3ccc(O)cc3)NC(=O)[C@H](C(C)C)NC2=O)NC(=O)[C@H](Cc2ccccc2)NC(=O)[C@H](CCCNC(=N)N)NC1=O)[C@@H](C)CC [Ugr9-1] (H-ISIDPPCRFCYHRDGSGNCVYDAYGCGAV-OH; disulfide 7-19, 10-26) | lack of effect | no activity | 30% | significantly decreased the number of writhes at all three doses | 270% | significant increase in paw withdrawal threshold (PWT) at all doses | 106% | significantly prolonged paw withdrawal time at all doses |  |  |  |  |  |  | 
CC[C@H](C)[C@H](N)C(=O)N[C@@H](CO)C(=O)N[C@H](C(=O)N[C@@H](CC(=O)O)C(=O)N1CCC[C@H]1C(=O)N1CCC[C@H]1C(=O)N[C@H]1CSSC[C@@H]2NC(=O)[C@H](CC(N)=O)NC(=O)CNC(=O)[C@H](CO)NC(=O)CNC(=O)[C@H](CC(=O)O)NC(=O)[C@H](CCCNC(=N)N)NC(=O)[C@H](Cc3c[nH]cn3)NC(=O)[C@H](Cc3ccc(O)cc3)NC(=O)[C@H](CSSC[C@@H](C(=O)NCC(=O)N[C@@H](C)C(=O)N[C@H](C(=O)O)C(C)C)NC(=O)CNC(=O)[C@H](Cc3ccc(O)cc3)NC(=O)[C@H](CCCCN)NC(=O)[C@H](CC(=O)O)NC(=O)[C@H](Cc3ccc(O)cc3)NC(=O)[C@H](C(C)C)NC2=O)NC(=O)[C@H](Cc2ccccc2)NC(=O)[C@H](CCCNC(=N)N)NC1=O)[C@@H](C)CC [A23K] (H-ISIDPPCRFCYHRDGSGNCVYDKYGCGAV-OH; disulfide 7-19, 10-26) |  |  |  | significant reduction in writhing episodes only at a dose of 0.02 mg/kg |  | significantly increased PWT only at 0.02 mg/kg |  | effects only at doses of 0.02 and 0.2 mg/kg | 74.9 ± 6.5% | over three times more active than S16K | 2.84 ± 0.31 | 6.72 µM | 1.5 times | more than three times less effectively than Ugr9-1 | two times less effective than Ugr9-1

— PMC11432795, “Mutagenesis of the Peptide Inhibitor of ASIC3 Channel Introduces Binding to Thumb Domain of ASIC1a but Reduces Analgesic Activity” (Marine Drugs, 2024)
